These results are taken from patent US12084437B2, “Halo-substituted piperidines as orexin receptor modulators” (AstraZeneca AB, priority 2016, dated 2024).

One experiment addresses T1, OX1 (Homo sapiens, UniProt O43613).
T1 construct: expressed in transfected cells; host or cells: CHO (CHO-OX1)
T1 sequence (O43613 1-425): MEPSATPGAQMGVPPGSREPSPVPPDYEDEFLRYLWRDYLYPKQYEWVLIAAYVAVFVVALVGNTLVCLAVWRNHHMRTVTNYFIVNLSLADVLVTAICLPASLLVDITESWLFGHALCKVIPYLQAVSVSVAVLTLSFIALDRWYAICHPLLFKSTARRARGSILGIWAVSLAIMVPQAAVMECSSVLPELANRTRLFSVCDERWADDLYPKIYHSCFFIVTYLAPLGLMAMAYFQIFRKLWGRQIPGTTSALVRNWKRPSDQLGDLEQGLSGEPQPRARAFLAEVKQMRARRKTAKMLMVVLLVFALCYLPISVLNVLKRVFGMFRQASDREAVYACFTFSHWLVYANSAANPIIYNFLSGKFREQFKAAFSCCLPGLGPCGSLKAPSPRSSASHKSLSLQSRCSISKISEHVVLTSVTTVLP
The experiment in a line: Orexin receptor cell-based functional assay, [Ca2+]i by FLIPR, CHO-OX1 cells. As to conditions: FLIPR calcium, antagonism of EC90 of [OX], read-out: OXI, IC50.

Another experiment deals with T2, OX2 (Homo sapiens, UniProt O43614).
T2 construct: expressed in transfected cells; host or cells: CHO (CHO-OX2)
T2 sequence (O43614 1-444): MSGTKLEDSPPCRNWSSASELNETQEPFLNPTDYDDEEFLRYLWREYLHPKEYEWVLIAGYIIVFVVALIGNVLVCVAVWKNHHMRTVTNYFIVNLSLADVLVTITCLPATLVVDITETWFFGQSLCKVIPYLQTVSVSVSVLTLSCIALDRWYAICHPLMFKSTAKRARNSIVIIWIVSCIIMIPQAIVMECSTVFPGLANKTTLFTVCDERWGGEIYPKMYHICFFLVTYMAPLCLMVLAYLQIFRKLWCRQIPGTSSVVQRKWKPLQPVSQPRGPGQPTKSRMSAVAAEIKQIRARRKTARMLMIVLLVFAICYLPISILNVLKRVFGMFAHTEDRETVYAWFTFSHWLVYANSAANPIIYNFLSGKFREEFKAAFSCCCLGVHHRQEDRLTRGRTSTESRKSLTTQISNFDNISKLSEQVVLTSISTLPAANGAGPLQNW
As to the kind of experiment: Orexin receptor cell-based functional assay, [Ca2+]i by FLIPR, CHO-OX2 cells. The settings on record: FLIPR calcium, antagonism of EC90 of [OX]. The method in brief: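 CHO cells expressing human OX1 or OX2 (20,000/well, grown overnight) were loaded with Calcium6 dye plus 2.5 mM probenecid for 2 h at 37 °C, then preincubated 30 min with compound (0.1 nM–10 µM). FLIPR fluorescence (ex 488/em 540 nm) was tracked before and after an EC90 orexin challenge.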

The term IC50 denotes the concentration at which inhibition is half-maximal. Consider `Cc1cnc(-c2cn(C)nc2C(=O)N2CC(F)(F)C[C@@H](C)[C@H]2CNc2ncc(C(F)(F)F)cn2)nc1` [Compound 219, ((2S,3R)-5,5-difluoro-3-methyl-2-(((5-(trifluoromethyl)pyrimidin-2-yl)amino)methyl)piperidin-1-yl)(1-methyl-4-(5-methylpyrimidin-2-yl)-1H-pyrazol-3-yl)methanone], for which the IC50 at OX1 is 120 nM; at OX2, over 5000 nM.

Consider `C[C@@H]1CC(F)(F)CN(C(=O)c2nn(C)cc2-c2ccccn2)[C@@H]1COc1ccc(C(F)(F)F)cn1` [Compound 220, ((2S,3R)-5,5-difluoro-3-methyl-2-(((5-(trifluoromethyl)pyridin-2-yl)oxy)methyl)piperidin-1-yl)(1-methyl-4-(pyridin-2-yl)-1H-pyrazol-3-yl)methanone], for which the IC50 was 8 nM on OX1 and over 5000 nM on OX2.

With `C[C@@H]1CC(F)(F)CN(C(=O)c2nn(C)cc2-c2ccc(Cl)cn2)[C@@H]1CNc1ncc(C(F)(F)F)cn1` [Compound 221, (4-(5-chloropyridin-2-yl)-1-methyl-1H-pyrazol-3-yl)((2S,3R)-5,5-difluoro-3-methyl-2-(((5-(trifluoromethyl)pyrimidin-2-yl)amino)methyl)piperidin-1-yl)methanone], the IC50 at OX1 was 2 nM; on OX2 it was over 5000 nM.

With `C[C@@H]1CC(F)(F)CN(C(=O)c2nn(C)cc2-c2ncccn2)[C@@H]1COc1ncc(C(F)(F)F)cn1` [Compound 222, ((2S,3R)-5,5-difluoro-3-methyl-2-(((5-(trifluoromethyl)pyrimidin-2-yl)oxy)methyl)piperidin-1-yl)(1-methyl-4-(pyrimidin-2-yl)-1H-pyrazol-3-yl)methanone], the IC50 at OX1 is 26 nM; on OX2, over 5000 nM.

Regarding `C[C@@H]1CC(F)(F)CN(C(=O)c2nn(C)cc2-c2ncccn2)[C@@H]1COc1cnc(C(F)(F)F)cn1` [Compound 223, ((2S,3R)-5,5-difluoro-3-methyl-2-(((5-(trifluoromethyl)pyrazin-2-yl)oxy)methyl)piperidin-1-yl)(1-methyl-4-(pyrimidin-2-yl)-1H-pyrazol-3-yl)methanone], the IC50 on OX1 was 52 nM; on OX2, over 5000 nM.

Consider `C[C@@H]1CC(F)(F)CN(C(=O)c2nn(C)cc2-c2cnccn2)[C@@H]1CNc1ncc(C(F)(F)F)cn1` [Compound 224, ((2S,3R)-5,5-difluoro-3-methyl-2-(((5-(trifluoromethyl)pyrimidin-2-yl)amino)methyl)piperidin-1-yl)(1-methyl-4-(pyrazin-2-yl)-1H-pyrazol-3-yl)methanone], for which the concentration for half-maximal inhibition (IC50) is 62 nM on OX1 and over 5000 nM at OX2.

On to `Cc1ccnc(-c2cn(C)nc2C(=O)N2CC(F)(F)C[C@@H](C)[C@H]2CNc2ncc(C(F)(F)F)cn2)n1` [Compound 225, ((2S,3R)-5,5-difluoro-3-methyl-2-(((5-(trifluoromethyl)pyrimidin-2-yl)amino)methyl)piperidin-1-yl)(1-methyl-4-(4-methylpyrimidin-2-yl)-1H-pyrazol-3-yl)methanone], for which the IC50 is 17 nM at OX1 and over 5000 nM on OX2.

Turning to `C[C@@H]1CC(F)(F)CN(C(=O)c2nn(C)cc2-c2ncc(C(F)(F)F)cn2)[C@@H]1CNc1ncc(C(F)(F)F)cn1` [Compound 226, ((2S,3R)-5,5-difluoro-3-methyl-2-(((5-(trifluoromethyl)pyrimidin-2-yl)amino)methyl)piperidin-1-yl)(1-methyl-4-(5-(trifluoromethyl)pyrimidin-2-yl)-1H-pyrazol-3-yl)methanone], the IC50 at OX1 was 350 nM; on OX2, over 5000 nM.

Regarding `C[C@@H]1CC(F)(F)CN(C(=O)c2nn(C)cc2-c2cc(Cl)ccn2)[C@@H]1CNc1ncc(C(F)(F)F)cn1` [Compound 227, (4-(4-chloropyridin-2-yl)-1-methyl-1H-pyrazol-3-yl)((2S,3R)-5,5-difluoro-3-methyl-2-(((5-(trifluoromethyl)pyrimidin-2-yl)amino)methyl)piperidin-1-yl)methanone], the concentration for half-maximal inhibition (IC50) on OX1 was 14 nM; on OX2, over 5000 nM.

Consider `C[C@@H]1CC(F)(F)CN(C(=O)c2nn(C)cc2-c2ncccn2)[C@@H]1CNc1ncc(C(F)(F)F)cc1F` [Compound 228, ((2S,3R)-5,5-difluoro-2-(((3-fluoro-5-(trifluoromethyl)pyridin-2-yl)amino)methyl)-3-methylpiperidin-1-yl)(1-methyl-4-(pyrimidin-2-yl)-1H-pyrazol-3-yl)methanone], for which the IC50 is 14 nM at OX1 and over 5000 nM on OX2.

Take `C[C@@H]1CC(F)(F)CN(C(=O)c2nn(C)cc2-c2cccc(C(F)(F)F)n2)[C@@H]1CNc1ncc(C(F)(F)F)cn1` [Compound 229, ((2S,3R)-5,5-difluoro-3-methyl-2-(((5-(trifluoromethyl)pyrimidin-2-yl)amino)methyl)piperidin-1-yl)(1-methyl-4-(6-(trifluoromethyl)pyridin-2-yl)-1H-pyrazol-3-yl)methanone]: the IC50 at OX1 is 7 nM; at OX2 it was over 5000 nM.

On to `C[C@@H]1CC(F)(F)CN(C(=O)c2nn(C)cc2-c2cncnc2)[C@@H]1CNc1ncc(C(F)(F)F)cn1` [Compound 230, ((2S,3R)-5,5-difluoro-3-methyl-2-(((5-(trifluoromethyl)pyrimidin-2-yl)amino)methyl)piperidin-1-yl)(1-methyl-4-(pyrimidin-5-yl)-1H-pyrazol-3-yl)methanone], for which the 50% inhibitory concentration (IC50) was 74 nM on OX1 and over 5000 nM on OX2.

For the compound `Cc1ccc(-c2ccc(C)nc2C(=O)N2CC(F)(F)C[C@@H](C)[C@H]2CNc2ncc(C(F)(F)F)cn2)nc1` [Compound 231, ((2S,3R)-5,5-difluoro-3-methyl-2-(((5-(trifluoromethyl)pyrimidin-2-yl)amino)methyl)piperidin-1-yl)(5,6′-dimethyl-[2,3′-bipyridin]-2′-yl)methanone], the IC50 on OX1 is 14 nM; at OX2, over 5000 nM.

As for `CCn1cc(-c2ncccn2)c(C(=O)N2CC(F)(F)C[C@@H](C)[C@H]2CNc2ncc(C(F)(F)F)cn2)n1` [Compound 232, ((2S,3R)-5,5-difluoro-3-methyl-2-(((5-(trifluoromethyl)pyrimidin-2-yl)amino)methyl)piperidin-1-yl)(1-ethyl-4-(pyrimidin-2-yl)-1H-pyrazol-3-yl)methanone], the IC50 at OX1 is 82 nM; on OX2 it was over 5000 nM.

For `Cc1c(-c2ncccn2)c(C(=O)N2CC(F)(F)C[C@@H](C)[C@H]2CNc2ncc(C(F)(F)F)cn2)nn1C` [Compound 233, ((2S,3R)-5,5-difluoro-3-methyl-2-(((5-(trifluoromethyl)pyrimidin-2-yl)amino)methyl)piperidin-1-yl)(1,5-dimethyl-4-(pyrimidin-2-yl)-1H-pyrazol-3-yl)methanone], the IC50 at OX1 is 1 nM; at OX2 it was over 5000 nM.

For `Cc1ccc(C#CC2CC2)c(C(=O)N2CC(F)(F)C[C@@H](C)[C@H]2CNc2ncc(C(F)(F)F)cn2)n1` [Compound 234, (3-(cyclopropylethynyl)-6-methylpyridin-2-yl)((2S,3R)-5,5-difluoro-3-methyl-2-(((5-(trifluoromethyl)pyrimidin-2-yl)amino)methyl)piperidin-1-yl)methanone], the IC50 on OX1 was 29 nM; at OX2 it was over 5000 nM.

On to `CC#Cc1ccc(C)nc1C(=O)N1CC(F)(F)C[C@@H](C)[C@H]1CNc1ncc(C(F)(F)F)cn1` [Compound 235, ((2S,3R)-5,5-difluoro-3-methyl-2-(((5-(trifluoromethyl)pyrimidin-2-yl)amino)methyl)piperidin-1-yl)(6-methyl-3-(prop-1-yn-1-yl)pyridin-2-yl)methanone], for which the IC50 at OX1 is 250 nM; on OX2, over 5000 nM.

As to `CC(C)n1cc(-c2ncccn2)c(C(=O)N2CC(F)(F)C[C@@H](C)[C@H]2CNc2ncc(C(F)(F)F)cn2)n1` [Compound 237, ((2S,3R)-5,5-difluoro-3-methyl-2-(((5-(trifluoromethyl)pyrimidin-2-yl)amino)methyl)piperidin-1-yl)(1-isopropyl-4-(pyrimidin-2-yl)-1H-pyrazol-3-yl)methanone], the IC50 is 1700 nM at OX1 and over 5000 nM on OX2.

Take `C[C@@H]1CC(F)(F)CN(C(=O)c2nn(CC(F)(F)F)cc2-c2ncccn2)[C@@H]1CNc1ncc(C(F)(F)F)cn1` [Compound 238, ((2S,3R)-5,5-difluoro-3-methyl-2-(((5-(trifluoromethyl)pyrimidin-2-yl)amino)methyl)piperidin-1-yl)(4-(pyrimidin-2-yl)-1-(2,2,2-trifluoroethyl)-1H-pyrazol-3-yl)methanone]: the 50% inhibitory concentration (IC50) at OX1 was over 2000 nM; at OX2, over 5000 nM.
